The results in this text go back to publication PMC6825270 (Proceedings of the National Academy of Sciences of the …, 2019).

For assay [1], the target named is human μ-opioid receptor (hMOPr) (human) (UniProt P35372). As to the kind of experiment: radioligand binding.
The target in assay [2] is human MOPr (hMOPr) (Homo sapiens, UniProt P35372). Nature of the assay: Inhibition of forskolin-stimulated cAMP formation in hMOPr HEK cells. Conditions: 10 µM. The format is cell-based. (Cyclic AMP is a second messenger, typically raised through Gs and lowered through Gi signalling.)
Assay [3] deals with human δ-opioid receptor (hDOPr) (human) (UniProt P41143). As to the kind of experiment: radioligand binding.
In assay [4] the target is human κ-opioid receptor (hKOPr) (human) (UniProt P41145). As to the kind of experiment: radioligand binding.
Assay [5] has as its target MOPr (Mus musculus, UniProt P42866). The format is cell-based. Conditions: GRK2-positive cells, saturating concentrations.
The target in assay [6] is mouse MOPr (mMOPr) (Mus musculus, UniProt P42866). As to the kind of experiment: GGIRK activation in AtT20 cells expressing mMOPr, perforated patch. The format is cell-based.

Sequence of human MOPr (hMOPr) (P35372 whole entry): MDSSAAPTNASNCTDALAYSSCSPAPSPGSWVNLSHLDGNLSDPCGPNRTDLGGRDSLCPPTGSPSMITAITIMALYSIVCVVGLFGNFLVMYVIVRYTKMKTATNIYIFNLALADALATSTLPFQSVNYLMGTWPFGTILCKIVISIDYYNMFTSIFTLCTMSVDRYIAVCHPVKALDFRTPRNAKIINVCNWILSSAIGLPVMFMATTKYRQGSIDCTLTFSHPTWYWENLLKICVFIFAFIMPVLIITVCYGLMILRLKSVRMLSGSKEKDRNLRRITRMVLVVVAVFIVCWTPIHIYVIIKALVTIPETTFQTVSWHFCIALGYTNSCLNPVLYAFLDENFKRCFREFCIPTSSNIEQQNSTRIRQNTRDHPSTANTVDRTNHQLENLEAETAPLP

A word on the Ki: it is the equilibrium dissociation constant of an inhibitor or competing ligand from its target. A high value points to a looser hold on the target. Molecule bilaid C (YvVf-OH) (peptide) returned a Ki in assay [1] of 210 nM.

On to H-fVvF-NH2 [1f], for which, in assay [2], the “Inhibition of cAMP formation / MOPr activity, in words” value was “generally inactive”.

As to H-fVvF-OH [1b], the “Inhibition of cAMP formation / MOPr activity, in words” value in assay [2] is “generally inactive”.

For bilorphin ([Dmt]vVf-NH2) (peptide), the Ki in assay [3] was 190 nM; in assay [4] it was 770 nM.

bilaid A (FvVf-OH) (peptide) returned a Ki in assay [1] of 3100 nM.

Turning to H-FVvf-NH2 [1g], the “Inhibition of cAMP formation / MOPr activity, in words” value in assay [2] is “generally inactive”.

As to H-fvVF-OH [1d], the “Inhibition of cAMP formation / MOPr activity, in words” value in assay [2] was “generally inactive”.

Turning to `COc1ccsc1CNCC[C@@]1(c2ccccn2)CCOC2(CCCC2)C1` [oliceridine], the “MOPr internalization with overexpressed GRK2-YFP and β-arrestin 2-HA, in words” value in assay [5] was “clear internalization signals”. Also, in assay [6], the “GGIRK activation in AtT20 cells, in words” value was “significantly less efficaciously than either morphine or bilorphin”.

On to H-FVvf-OH [1c], for which the “Inhibition of cAMP formation / MOPr activity, in words” value in assay [2] was “generally inactive”.

FVVF (D-Val at 2, D-Phe at 4; C-terminal amide) [C-terminally amidated bilaid A (1e)]: the Ki in assay [1] turned out to be 750 nM. In other words, the sub-micromolar range.
